{"source": "patent US20250230413A1", "about": "“METHODS AND SYSTEMS FOR THE CULTURE OF CELLS AT LIQUID-LIQUID INTERFACES” (Queen Mary University of London, priority 2022, published 2025)", "key": {"MSCs [1]": {"test_system": "MSCs", "assay": "Growth of MSCs at crosslinked βLG and BSA nanosheets (Novec 7500 interfaces)", "assay_type": "cell-based, human", "settings": "MSCs growing for 5 days; interfaces crosslinked by sulfo-SMCC (1 mg/ml, pH 7.4), fibronectin coupled", "protocol": "(§1) Human Bone Marrow Derived Mesenchymal Stem Cell culture and seeding. hBM-MSCs were purchased from PromoCell and cultured according to the supplier's recommendations.\nGeneration of fluorinated pinned droplets for cell culture. Thin glass slides (25×60 mm, VWR) were washed with isopropanol and dried under nitrogen, prior to plasma oxidation for 10 min (Henniker Plasma HPT-200). Slides were then placed into an anhydrous ethanol solution (9.5 mL) containing trichloro-1H,1H,2H,2H-perfluorooctyl silane (97%, Sigma-Aldrich) (500 μL) for 1 h, at room temperature. The fluorinated glass slides were cut into chips (1×1 cm) and placed into a 24 well plate (for Hoechst staining), or the glass slides were kept at their original dimensions and embedded on sticky-slide 8 wells plates (Ibidi), for imaging on a confocal microscope. After sterilization with 70% ethanol, the wells were washed (once) and then filled with 2 mL (or 600 μL for the sticky wells) of PBS (pH 7.4 for βLG, Fibrinogen and different BSA types, and pH 10.5 for poly(L-lysine), PLL). 100 μL of fluorinated oil (or 10 μL for the sticky wells), with or without fluorinated surfactant (10 μg/mL) were added to the surface of the glass slide, forming a fluorinated pinned droplet. For samples prepared in 24 well plates, 30 μL of the oil phase was removed using a micropipette, to form a flatter oil droplet. […]\nImmuno-fluorescence staining."}, "HEK293T cells": {"test_system": "HEK293T cells", "settings": "HEK293T on BSA interfaces for 22 days", "quoted_text": "Cell seeding on emulsions. HEK293T cells, human iPSCs, Human primary keratinocytes and human MSCs were cultured according to manufacturer's instructions. For cell culture, 500 μL of corresponding medium was transferred per well in a 24 well plate treated with 25 μg/mL poly(L-lysine)-graft-polyethylene glycol (PLL-g-PEG, SuSoS). Then, 100 μL of emulsion were transferred per well. Different cell densities were used depending on the cell type. Being 10^4 cells/well for HEK293T, 4×10^4 cells/well for iPSCs, and 4×10^4 cells/well for MSCs.\nProliferation assay CCK8. Proliferation assays were performed using the Cell Counting Kit-8 (Dojindo, Kumamoto, Japan). HEK293T growing on emulsions were incubated with 100 μl CCK-8 reagent for 4 hours at 37° C. over different time-points, and optical density at 450 nm was measured."}, "iPSCs": {"test_system": "iPSCs", "assay": "Cardiomyocyte differentiation of iPSCs on βLG-SMCC-VN microdroplets or EBs, flow cytometry of TNNT2+", "assay_type": "cell-based, human", "settings": "differentiation initiated 2 days after seeding, CDM3 medium", "protocol": "Embryoid bodies Formation. Polyvinyl alcohol (PVA) was dissolved in E8 flex medium overnight to achieve a concentration of 4% PVA. This was then filtered and supplemented with 10 μM Y-27632. iPSCs were dissociated with Gentle Cell Dissociation Reagent according to manufacturer's instructions. After centrifugation, cells were counted. An aliquot of the cell suspension is then taken and centrifuged at 120×g for 3 minutes. The cell pellet was then resuspended in E8 flex with PVA and Y-27632 to achieve a cell concentration of 1×10^6 cells/mL. A petri dish was then filled with sterile water. The lid was then placed upside down and multiple 10 μL drops of the cell suspension was then placed on the lid. The lid was then placed back on the petri dish resulting in hanging droplets. After 24 hours, 30 embryoid bodies were transferred to a well of an ultra-low attachment 6-well plate filled with E8 flex medium.\nCardiomyocyte Differentiation. The iPSCs were seeded on microdroplets and tissue culture plastic controls in E8 flex medium supplemented with Y-27632, a ROCK inhibitor. After 24 hours, the medium was replaced with E8 flex medium. […]\nFlow Cytometry. […] Cells were then counted and stained with the staining solution for surface markers. […] Stained cells were analysed with BD LSRII. […] The data was analysed using FlowJo software."}, "MSCs [2]": {"test_system": "MSCs", "assay": "Scale-up growth of MSCs on fluorinated oil/MA-BSA bioemulsions in 250 ml flask", "assay_type": "cell-based, human", "settings": "15 days, 250 ml flask under agitation", "protocol": "as §1\nRGD peptide coupling to biofunctionalised BSA. For the preparation of emulsions, RGD peptide coupling to functionalized BSA molecules was performed first. RGD peptide concentration was determined for each functionalized BSA formulation to enable coupling of 10 peptides per BSA molecule. Custom peptides were designed to allow reaction with functional groups in the modified BSA backbone. GCGGRGDSPG peptide was coupled to NB-BSA via […] in the presence of 1% lithium phenyl-2,4,6-trimethylbenzoylphosphinate (LAP, Sigma-Aldrich), crosslinking was performed with 405 nm blue light for 3 min. at 20 mW/cm2. CGGRGDSPG peptide was conjugated to AC-BSA and MA-BSA via […] in PBS pH 9 for at least 3 hours. The same procedure was used for FITC-RGD bearing peptides.\nConical flask bioreactor scale-up. Scale up of the MA-BSA bioemulsions system was performed on 250 ml polycarbonate Erlenmeyer flasks (Corning) with Vent caps, using a total amount of medium of 50 ml. […] Cell numbers/surface area used in bioemulsions and 2D conditions were the same (1000 cells/cm^2) and calculated assuming and average diameter of 100 μm for the bioemulsions. […]"}}, "data": [{"molecule": "Bovine Serum Albumin [BSA]", "values": [{"measurement": "cell adhesion to the interface (vinculin staining)", "setting": "MSCs [1]", "value": "excellent cell adhesion"}, {"measurement": "proliferation after long-term culture", "setting": "HEK293T cells", "value": "high proliferation"}]}, {"molecule": "Cc1c[nH]c(-c2cnc(NCCNc3ccc(C#N)cn3)nc2-c2ccc(Cl)cc2Cl)n1", "note": "[CHIR99021]", "values": [{"measurement": "Percentage of TNNT2+ (whether differentiation works)", "setting": "iPSCs; CHIR99021 6 μM, varying Wnt-C59", "value": "consistently works across conditions except for 230 μm microdroplets when 5 μM of Wnt-C59 is used"}, {"measurement": "Percentage of TNNT2+ (whether differentiation works)", "setting": "iPSCs; higher CHIR99021 concentration (above 6 μM)", "value": "only works for microdroplets and only when followed by 5 μM Wnt-C59"}]}, {"molecule": "MS-BSA: methacrylated BSA", "values": [{"measurement": "coverage of bioemulsion surface by cells", "setting": "MSCs [2]", "value": "cells cover all the available surface of the bioemulsions"}]}]}
